Measurements as given in PubChem BioAssay AID2060622 (Molecular Pharmacology Branch, DTP, NCI, 2025).
Several values for one entry are separate records, joined by “and”; a condition that tells them apart may be missing. Equal values may be shown once.

System: 242566-281-R-J2-PDC complex spheroid viability
Test: Anticancer human tumor 242566-281-R-J2-PDC patient-derived pancreatic carcinoma cell line growth inhibition [CLK]
Settings: for viability, T/C: stronger effect = lower value; active means viability on the fitted dose curve at most 10% of control; inactive means the rest
Method in brief: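 Patient-derived tumor cells grown as complex spheroids with HUVEC endothelial cells and mesenchymal stem cells, treated with drug combinations. Concentrations descend in half-log steps from near clinical Cmax, or from 10 microM if Cmax unknown.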
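Further: spheroids exposed to compounds for 7 days before readout.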
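Wherever viability, T/C is given: 100% = DMSO vehicle control wells.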

CC(Nc1ccc2c(c1)OCCn1cc(N3C(=O)OCC3C(F)F)nc1-2)C(N)=O (stereo not drawn)
1180 nM and 2540 nM: IC50 (curve of compound)
inactive: viability, T/C (compound 0.0316 µM) 98.6% and 96.1% | viability, T/C (compound 0.1 µM) 91.6% and 97.8% | viability, T/C (compound 0.316 µM) 71.3% and 89.9% | viability, T/C (compound 1 µM) 51.9% and 68.2% | viability, T/C (compound 3.16 µM) 36.4% and 46.8% | viability, T/C (compound 10 µM) 21.7% and 32.6%

C#Cc1c(F)ccc2cc(O)cc(-c3ncc4c(N5CC6CCC(C5)N6)nc(OCC56CCCN5CC(F)C6)nc4c3F)c12 (stereo not drawn) + CNC(=O)c1ccc(Nc2nc(OC3CCCC3)c3c(-c4ccc5nc(C)oc5c4)c[nH]c3n2)c(OC)c1
active: viability, T/C (second compound 3.16 µM, first compound 10 µM) 7.39% | viability, T/C (second compound 10 µM, first compound 3.16 µM) 11.1% | viability, T/C (second compound 10 µM, first compound 10 µM) 6.78%
4270 nM: IC50 (curve of first compound, second compound 0.0316 µM)
< 31.6 nM: IC50 (curve of first compound, second compound 1 µM) | IC50 (curve of first compound, second compound 3.16 µM) | IC50 (curve of first compound, second compound 10 µM)
1430 nM: IC50 (curve of first compound, second compound 0.1 µM)
inactive: viability, T/C (second compound 0.0316 µM, first compound 0.0316 µM) 106% | viability, T/C (second compound 0.0316 µM, first compound 0.1 µM) 89.4% | viability, T/C (second compound 0.0316 µM, first compound 0.316 µM) 68.1% | viability, T/C (second compound 0.0316 µM, first compound 1 µM) 60.8% | viability, T/C (second compound 0.0316 µM, first compound 3.16 µM) 52.1% | viability, T/C (second compound 0.0316 µM, first compound 10 µM) 45.6% | viability, T/C (second compound 0.1 µM, first compound 0.0316 µM) 109% | viability, T/C (second compound 0.1 µM, first compound 0.1 µM) 92.9% | viability, T/C (second compound 0.1 µM, first compound 0.316 µM) 67.6% | viability, T/C (second compound 0.1 µM, first compound 1 µM) 55.3% | viability, T/C (second compound 0.1 µM, first compound 3.16 µM) 42.2% | viability, T/C (second compound 0.1 µM, first compound 10 µM) 32.9% | viability, T/C (second compound 0.316 µM, first compound 0.0316 µM) 81.7% | viability, T/C (second compound 0.316 µM, first compound 0.1 µM) 66.7% | viability, T/C (second compound 0.316 µM, first compound 0.316 µM) 52.2% | viability, T/C (second compound 0.316 µM, first compound 1 µM) 39.3% | viability, T/C (second compound 0.316 µM, first compound 3.16 µM) 36.5% | viability, T/C (second compound 0.316 µM, first compound 10 µM) 22.3% | viability, T/C (second compound 1 µM, first compound 0.0316 µM) 48.4% | viability, T/C (second compound 1 µM, first compound 0.1 µM) 29% | viability, T/C (second compound 1 µM, first compound 0.316 µM) 22.9% | viability, T/C (second compound 1 µM, first compound 1 µM) 16.5% | viability, T/C (second compound 1 µM, first compound 3.16 µM) 13.4% | viability, T/C (second compound 1 µM, first compound 10 µM) 15.5% | viability, T/C (second compound 3.16 µM, first compound 0.0316 µM) 20.3% | viability, T/C (second compound 3.16 µM, first compound 0.1 µM) 17.5% | viability, T/C (second compound 3.16 µM, first compound 0.316 µM) 15.9% | viability, T/C (second compound 3.16 µM, first compound 1 µM) 11.8% | viability, T/C (second compound 3.16 µM, first compound 3.16 µM) 10.9% | viability, T/C (second compound 10 µM, first compound 0.0316 µM) 17.5% | viability, T/C (second compound 10 µM, first compound 0.1 µM) 14.5% | viability, T/C (second compound 10 µM, first compound 0.316 µM) 13.2% | viability, T/C (second compound 10 µM, first compound 1 µM) 10.8%
434 nM: IC50 (curve of first compound, second compound 0.316 µM)

CC(CO)NC(=O)c1cc(-c2ccc(Cl)cc2)nn(-c2cnn(C)c2)c1=O (stereo not drawn)
inactive: viability, T/C (compound 0.0316 µM) 94.4% and 97.3% | viability, T/C (compound 0.1 µM) 96.2% and 94.5% | viability, T/C (compound 0.316 µM) 85.6% and 102% | viability, T/C (compound 1 µM) 116% and 98.1% | viability, T/C (compound 3.16 µM) 131% and 97.1% | viability, T/C (compound 10 µM) 75.8% and 82.5%
> 10000 nM: IC50 (curve of compound)

Nc1ccn(C2OC(CO)C(O)C2(F)F)c(=O)n1 (stereo not drawn)
< 31.6 nM and 83.9 nM: IC50 (curve of compound)
7.63% and 10.3%: viability, T/C (compound 3.16 µM)
9.16% and 13.8%: viability, T/C (compound 1 µM)
active: viability, T/C (compound 10 µM) 6.49% and 9.77%
inactive: viability, T/C (compound 0.0316 µM) 39.5% and 87% | viability, T/C (compound 0.1 µM) 16.9% and 43.3% | viability, T/C (compound 0.316 µM) 11.7% and 21.3%
